Experimental data published in patent US9695155B2, “Herbicidal substituted pyrimidinyloxy benzene compounds” (E. I. DU PONT DE NEMOURS AND COMPANY, priority 2013, dated 2017).

What was measured:
deadnettle = experiment: Test D postemergence; assay type: in vivo, Lamium amplexicaule; settings: Lamium amplexicaule, post-emergence, scale 0 to 100 (0 no effect, 100 complete control), read-out: Plant response rating, Deadnettle
In short: (§1)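 In a controlled growth environment, treated and control plants were held 7 to 21 days, then compared visually. Damage was scored 0–100, where 100 means complete control. Sprays contained surfactant in a non-phytotoxic solvent; post-applied plants were at the 1- to 4-leaf stage.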

sandbur = experiment: Test E postemergence; assay type: in vivo, Cenchrus echinatus; settings: Cenchrus echinatus, post-emergence, read-out: Plant response rating, Sandbur
In short: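 Response was scored visually on a 0-100 scale (100 = complete control) versus controls after 14 to 21 days in the greenhouse. Test chemicals, formulated with surfactant in a non-phytotoxic solvent mixture, had been applied preemergence to seeds in silt loam soil or postemergence to 1- to 4-leaf plants in potting medium.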

chamomile = experiment: Test D preemergence; assay type: in vivo, Matricaria inodora; settings: Tripleurospermum inodorum, pre-emergence, scale 0-100, read-out: Plant response rating, Chamomile
In short: as §1

wild radish [1] = experiment: Test D postemergence; assay type: in vivo, Raphanus raphanistrum; settings: Raphanus raphanistrum, post-emergence, scale 0 to 100 (0 no effect, 100 complete control), read-out: Plant response rating, Radish, Wild
In short: as §1

windgrass = experiment: Test D preemergence; assay type: in vivo, Apera spica-venti; settings: Apera spica-venti, pre-emergence
In short: as §1

speedwell = experiment: Test D preemergence; assay type: in vivo, Veronica persica; settings: Veronica persica, pre-emergence
In short: as §1

wild buckwheat = experiment: Test D preemergence; assay type: in vivo, Polygonum convolvulus; settings: Fallopia convolvulus, pre-emergence, scale 0-100, read-out: Plant response rating, Buckwheat, Wild
In short: as §1

wild mustard [2] = experiment: Test D postemergence; assay type: in vivo, Sinapis arvensis; settings: Brassica, post-emergence, scale 0 to 100 (0 no effect, 100 complete control), read-out: Plant response rating, Mustard, Wild
In short: as §1

green foxtail = experiment: Test D postemergence; assay type: in vivo, Setaria viridis; settings: Setaria viridis, post-emergence, scale 0 to 100 (0 no effect, 100 complete control), read-out: Plant response rating, Foxtail, Green
In short: as §1

wild mustard [3] = experiment: Test D preemergence; assay type: in vivo, Sinapis arvensis; settings: Brassica, pre-emergence, scale 0-100, read-out: Plant response rating, Mustard, Wild
In short: as §1

field violet = experiment: Test D postemergence; assay type: in vivo, Viola arvensis; settings: Viola arvensis, post-emergence, scale 0 to 100 (0 no effect, 100 complete control), read-out: Plant response rating, Field Violet
In short: as §1

wild radish [4] = experiment: Test D preemergence; assay type: in vivo, Raphanus raphanistrum; settings: Raphanus raphanistrum, pre-emergence
In short: as §1

oilseed rape = experiment: Test D preemergence; assay type: in vivo, Brassica napus; settings: Brassica napus, pre-emergence, scale 0-100, read-out: Plant response rating, Oilseed Rape
In short: as §1

wild oat = experiment: Test D preemergence; assay type: in vivo, Avena fatua; settings: Avena fatua, pre-emergence, scale 0-100, read-out: Plant response rating, Oat, Wild
In short: as §1

SMILES: N#Cc1cccc(Oc2ncc(Br)cn2)c1-n1cc(C(F)(F)F)cn1 [Compound 59, 3-[(5-bromo-2-pyrimidinyl)oxy]-2-[4-(trifluoromethyl)-1H-pyrazol-1-yl]benzonitrile]
- pest or weed control at 31 g/ha (deadnettle; 31 g ai/ha): 70%
- pest or weed control at 62 g/ha (deadnettle; 62 g ai/ha): 75%
- pest or weed control at 125 g/ha (deadnettle; 125 g ai/ha): 100%
- pest or weed control at 250 g/ha (deadnettle; 250 g ai/ha): 100%
- pest or weed control at 31 g/ha (sandbur; Postemergence, 31 g ai/ha, scale 0 to 100): 0%
- pest or weed control at 62 g/ha (sandbur; Postemergence, 62 g ai/ha, scale 0 to 100): 0%
- pest or weed control at 125 g/ha (sandbur; Postemergence, 125 g ai/ha, scale 0 to 100): 10%
- pest or weed control at 250 g/ha (sandbur; Postemergence, 250 g ai/ha, scale 0 to 100): 20%
- pest or weed control at 16 g/ha (sandbur; postemergence, 16 g ai/ha, scale 0 to 100, 0 no effect, 100 complete control): 0%
- pest or weed control at 31 g/ha (chamomile; 31 g ai/ha): 10%
- pest or weed control at 62 g/ha (chamomile; 62 g ai/ha): 15%
- pest or weed control at 125 g/ha (chamomile; 125 g ai/ha): 95%
- pest or weed control at 250 g/ha (chamomile; 250 g ai/ha): 85%
- pest or weed control at 31 g/ha (wild radish [1]; 31 g ai/ha): 35%
- pest or weed control at 62 g/ha (wild radish [1]; 62 g ai/ha): 70%
- pest or weed control at 125 g/ha (wild radish [1]; 125 g ai/ha): 80%
- pest or weed control at 250 g/ha (wild radish [1]; 250 g ai/ha): 85%
- pest or weed control at 31 g/ha (windgrass; 31 g ai/ha, scale 0 (no effect) to 100 (complete control), read-out: Plant response rating, Windgrass): 70%
- pest or weed control at 62 g/ha (windgrass; 62 g ai/ha, scale 0-100, read-out: Plant response rating, Windgrass): 100%
- pest or weed control at 125 g/ha (windgrass; 125 g ai/ha, scale 0-100, read-out: Plant response rating, Windgrass): 100%
- pest or weed control at 250 g/ha (windgrass; 250 g ai/ha, scale 0-100, read-out: Plant response rating, Windgrass): 100%
- pest or weed control at 31 g/ha (speedwell; 31 g ai/ha, scale 0 (no effect) to 100 (complete control), read-out: Plant response rating, Speedwell): 15%
- pest or weed control at 62 g/ha (speedwell; 62 g ai/ha, scale 0-100, read-out: Plant response rating, Speedwell): 100%
- pest or weed control at 125 g/ha (speedwell; 125 g ai/ha, scale 0-100, read-out: Plant response rating, Speedwell): 100%
- pest or weed control at 250 g/ha (speedwell; 250 g ai/ha, scale 0-100, read-out: Plant response rating, Speedwell): 100%
- pest or weed control at 31 g/ha (wild buckwheat; 31 g ai/ha): 60%
- pest or weed control at 62 g/ha (wild buckwheat; 62 g ai/ha): 100%
- pest or weed control at 125 g/ha (wild buckwheat; 125 g ai/ha): 100%
- pest or weed control at 250 g/ha (wild buckwheat; 250 g ai/ha): 100%
- pest or weed control at 31 g/ha (wild mustard [2]; 31 g ai/ha): 100%
- pest or weed control at 62 g/ha (wild mustard [2]; 62 g ai/ha): 95%
- pest or weed control at 125 g/ha (wild mustard [2]; 125 g ai/ha): 100%
- pest or weed control at 250 g/ha (wild mustard [2]; 250 g ai/ha): 100%
- pest or weed control at 31 g/ha (green foxtail; 31 g ai/ha): 20%
- pest or weed control at 62 g/ha (green foxtail; 62 g ai/ha): 35%
- pest or weed control at 125 g/ha (green foxtail; 125 g ai/ha): 50%
- pest or weed control at 250 g/ha (green foxtail; 250 g ai/ha): 80%
- pest or weed control at 31 g/ha (wild mustard [3]; 31 g ai/ha): 15%
- pest or weed control at 62 g/ha (wild mustard [3]; 62 g ai/ha): 100%
- pest or weed control at 125 g/ha (wild mustard [3]; 125 g ai/ha): 100%
- pest or weed control at 250 g/ha (wild mustard [3]; 250 g ai/ha): 100%
- pest or weed control at 31 g/ha (field violet; 31 g ai/ha): 100%
- pest or weed control at 62 g/ha (field violet; 62 g ai/ha): 100%
- pest or weed control at 125 g/ha (field violet; 125 g ai/ha): 100%
- pest or weed control at 250 g/ha (field violet; 250 g ai/ha): 100%
- pest or weed control at 31 g/ha (wild radish [4]; 31 g ai/ha, scale 0 (no effect) to 100 (complete control), read-out: Plant response rating, Radish, Wild): 95%
- pest or weed control at 62 g/ha (wild radish [4]; 62 g ai/ha, scale 0-100, read-out: Plant response rating, Radish, Wild): 100%
- pest or weed control at 125 g/ha (wild radish [4]; 125 g ai/ha, scale 0-100, read-out: Plant response rating, Radish, Wild): 95%
- pest or weed control at 250 g/ha (wild radish [4]; 250 g ai/ha, scale 0-100, read-out: Plant response rating, Radish, Wild): 100%
- plant injury at 31 g/ha (oilseed rape; 31 g ai/ha): 65%
- plant injury at 62 g/ha (oilseed rape; 62 g ai/ha): 60%
- plant injury at 125 g/ha (oilseed rape; 125 g ai/ha): 100%
- plant injury at 250 g/ha (oilseed rape; 250 g ai/ha): 100%
- pest or weed control at 31 g/ha (wild oat; 31 g ai/ha): 0%
- pest or weed control at 62 g/ha (wild oat; 62 g ai/ha): 0%
- pest or weed control at 125 g/ha (wild oat; 125 g ai/ha): 20%
- pest or weed control at 250 g/ha (wild oat; 250 g ai/ha): 55%
